In the supplement of paper PMC8671470:

Assays:
Experiment in all cases: cell viability (% survival relative to DMSO control, bortezomib = 0%); higher = less cytotoxic
Settings in all cases: 72 h
[1] = test system: HEL
Outline: (§1)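 Fifteen myeloid leukaemia cell lines (10 AML, 5 CML) were seeded at a density titrated to the linear growth range into 384-well plates pre-printed with compounds at 1, 10, 100, 1000 or 10000 nM in duplicate. Plates were incubated for 72 h at 37 °C with 5% CO2. Viability was then read by CellTiter-Glo luminescence. Each value is percent survival averaged over the duplicates, with vehicle set to 100% and a 10 µM positive control to 0%.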

[2] = test system: KU-812
Outline: as §1

[3] = test system: NOMO-1
Outline: as §1

[4] = test system: HL-60
Outline: as §1

Structure (SMILES)	cell viability ([1]; 1 nM) [%]	cell viability ([1]; 10 nM) [%]	cell viability ([1]; 100 nM) [%]	cell viability ([1]; 1000 nM) [%]	cell viability ([1]; 10000 nM) [%]	cell viability ([2]; 1 nM) [%]	cell viability ([2]; 10 nM) [%]	cell viability ([2]; 100 nM) [%]	cell viability ([2]; 1000 nM) [%]	cell viability ([2]; 10000 nM) [%]	cell viability ([3]; 1 nM) [%]	cell viability ([3]; 10 nM) [%]	cell viability ([3]; 100 nM) [%]	cell viability ([3]; 1000 nM) [%]	cell viability ([3]; 10000 nM) [%]	cell viability ([4]; 1 nM) [%]	cell viability ([4]; 10 nM) [%]	cell viability ([4]; 100 nM) [%]	cell viability ([4]; 1000 nM) [%]	cell viability ([4]; 10000 nM) [%]
Cl.OC[C@H]1NC[C@@H](O)[C@@H](O)[C@@H]1O [1-Deoxymannojirimycin hydrochloride]	102	83.2	112	119	86.1	101	89.2	95.7	98	98.1	103	89.9	104	99.3	92.1	98.5	79.5	102	124	80.5
CCOC(=O)[C@@]1(CCCCCCOc2ccc(Cl)cc2)CO1 [Etomoxir]	105	99.6	105	93.3	84.5	91.3	110	93.5	82.7	60.8	99.5	101	104	92.1	102	77.7	74.7	83.3	98.5	69.5
O=C(O)c1cc2sccc2[nH]1 [4H-thieno[3,2-b]pyrrole-5-carboxylic acid]	120	106	97.5	93.5	108	95.9	98.3	98.9	101	108	105	97.8	98.3	106	110	117	104	90.6	69.1	95.3
CCCc1nn(C)c2c(O)nc(-c3cc(S(=O)(=O)N4CCN(C)CC4)ccc3OCC)nc12 [Sildenafil]	96.8	115	100	108	122	87.5	104	91.3	107	92.1	86.9	104	93.2	96.8	94.9	99.7	88.7	100	82.9	111
CN(C)c1nc(O)c2[nH]cnc2n1 [2-Dimethylamino-6-hydroxypurine]	105	85.3	114	106	84.8	93.8	96.7	91	94.2	103	101	95.9	108	102	105	103	81.4	79.9	110	90.1
CC(C)C[C@H](NC(=O)[C@@H](O)[C@H](N)Cc1ccccc1)C(=O)O [Ubenimex]	107	106		95.4	106	110	109	97.8	97.4	115	105	105	94.8	95.5	100	98.3	124	98.7	77.9	97
O=C1Oc2ccccc2C(=O)C1CC1C(=O)Oc2ccccc2C1=O (stereo not drawn) [Dicumarol]	109	102	92	101	107	110	95.6	84.2	97.8	107	99.4	101	98.8	109	96.3	98.3	102	101	104	112
O=C(c1ccc(OCCN2CCCCC2)cc1)c1c(-c2ccc(O)cc2)sc2cc(O)ccc12 [Raloxifene]	90.2	97.7	96.3	98.4	87.4	97.1	95.8	95.3	93	70.6	100	95.8	99.3	100	86.5	99.3	90.6	99.8	110	62.1
Cc1coc2c1C(=O)C(=O)c1c-2ccc2c(C)cccc12 [Tanshinone I]	121	97.3	107	106	92.7	105	104	101	106	89.2	111	103	97.3	98.6	91.5	99	105	117	105	79.7
c1ccc2c(c1)OCC(=C1NCCN1)O2 [Idazoxan]	96.4	112	85.6	95.1	90.4	105	108	96.5	91.8	105	98.9	104	94.4	92.2	89.3	89.1	80.3	80	97.2	75.9
CC(/C=C1\SC(=S)N(CC(=O)O)C1=O)=C\c1ccccc1 [Epalrestat]	120	94.8	99.5	95.5	112	101	91.6	94.9	95.4	111	108	101	93.4	102	103	120	102	109	112	115
C1CCc2nnc(C34CC5CC(CC(C5)C3)C4)n2CC1 [MERCK-544]	104	106	95.2	92.4	132	97.6	95	86.9	78.7	97.9	102	95.8	89.3	97.4	109	94.7	154	103	74.8	129
N[C@](CCCCB(O)O)(CCN1CCCCC1)C(=O)O [Arginase inhibitor 1]	109	96.7	101	90.4	95.4	102	84.6	85.6	108	89.4	91.3	94.5	103	96.4	93.9	131	104	73.9	106	117
Clc1ccc2c(c1Cl)CNCC2	100	111	90.9	107	82.4	99.9	92.5	94.4	118	87.8	95.4	100	101	102	90.9	101	194	90.1	103	95.8
CC(C(=O)O)C(=O)O [Methylmalonate]	87.5	100	109	81.5	95.3	90.1	93.7	97	90.5	85.6	95.4	94.6	97.2	94	96.1	84.9	104	92.2	116	90.1
CCOC(=O)N1c2ccc(C(F)(F)F)cc2[C@@H](N(Cc2cc(C(F)(F)F)cc(C(F)(F)F)c2)C(=O)OC)C[C@H]1CC [Torcetrapib]	102	96.9	134	103	109	101	112	113	102	83.8	103	99.4	102	99.1	99	92.7	109		107	91
O=C(O)CCc1ccc(NCc2cccc(Oc3ccccc3)c2)cc1 [GW9508]	112	105	101	109	104	89.2	92.4	101	98.8	99.3	92.8	96.6	108	108	104	90	94.3	104	103	83.5
CC(Cc1ccc(O)c(O)c1)C(C)Cc1ccc(O)c(O)c1 (stereo not drawn) [Masoprocol]	114	106	137	114	79.8	102	94.3	102	102	59.4	97	104	101	111	56.2	89	81.2	118	90	6.31
Nc1ccn([C@@H]2O[C@H](CO)[C@@H](O)[C@@H]2O)c(=O)n1 [Cytarabine]	104	95.2	19.6	-0.409	1.24	97	81.8	24.6	7.19	5.66	107	105	89.6	78.1	9.44	100	95.1	82.3	28	0.475
O=C(COc1ccc(C(=O)c2ccccc2)cc1)NC1CCN(Cc2ccccc2)CC1 [AdipoRon]	94.5	96.6	96.6	97.5	85.4	94.6	114	90.9	98.3	41.5	102	107	96.3	96.7	91.1	102	118	81.9	111	70
O=C(O)C(S)=Cc1c[nH]c2ccc(F)cc12	102	103	95.4	94	101	102	103	101	112	102	103	97.9	107	116	94.8	98.3	103	111	66.7	90.7
COc1cc2c(NC3CCN(C)CC3)nc(N3CCCN(C)CC3)nc2cc1OCCCN(C)C [UNC0224]	84.8	114	106	98.3	88.6	98.7	107	89.8	106	79.5	103	111	98.4	95.2	90.4	92.3	123	97.8	89.5	65.1
C[C@]12CC[C@H](O)CC1=CC[C@@H]1[C@@H]2CC[C@]2(C)C(c3cccnc3)=CC[C@@H]12 [Abiraterone]	113	109	110	112	111	88.8	94.8	101	108	101	106	104	97.6	112	108	142	97.7	136	80.3	124
Cc1c(-c2ccccc2)oc2c(C(=O)OCCN3CCCCC3)cccc2c1=O.Cl [Flavoxate]	91	105	107	95.3	100	92.2	110	111	99	99.2	93.8	105	99.3	97.1	99.6	89.2	121	90.7	102	103
Clc1ccc(COC(Cn2ccnc2)c2ccc(Cl)cc2Cl)cc1 (stereo not drawn) [Econazole]	106	90.4	99.1	99	77.3	113	101	87.2	89.5	41.9	105	84.8	98.2	93.2	89.1	120	80.3	109	81.2	41.5
Sc1ncnc2nc[nH]c12 [6-mercaptopurine]	96.5	98.2	95.6	70.6	7.42	98.9	100	93	59.3	54.4	108	86.7	88.6	41.5	30.5	144	85.8	118	54.7	15.2
CCOC(=O)[C@H]1O[C@@H]1C(=O)N[C@@H](CC(C)C)C(=O)NCCC(C)C [Aloxistatin]	111	102	106	96.2	88.2	94	104	103	105	96.5	96.2	109	100	96.2	24.4	103	120	108	114	74
